Source: patent publication US20040063746A1, “Indole, azaindole and related heterocyclic ureido and thioureido piperazine derivatives” (priority 2002, published 2004)

System: HIV-1 single-round infectious reporter virus
Assay: microbe, parasite or virus in culture
Assay type: cell-based
Conditions: Human immunodeficiency virus 1, HeLa, 72 h, read-out: EC50 Group from Table 1
Experimental: Virus production-Human embryonic Kidney cell line, 293T, was propagated in Dulbecco's Modified Eagle Medium (Invitrogen, Carlsbad, Calif.) containing 10% fetal Bovine serum (FBS, Sigma, St. Louis, Mo.).
Virus infection—Human epithelial cell line, HeLa, expressing the HIV-1 receptor CD4 was propagated in Dulbecco's Modified Eagle Medium (Invitrogen, Carlsbad, Calif.) containing 10% fetal Bovine serum (FBS, Sigma, St. Louis, Mo.) and supplemented with 0.2 mg/mL Geneticin (Invitrogen, Carlsbad, Calif.).
Virus-Single-round infectious reporter virus was produced by co-transfecting human embryonic Kidney 293 cells with an HIV-1 envelope DNA expression vector and a proviral cDNA containing an envelope deletion mutation and the luciferase reporter gene inserted in place of HIV-1 nef sequences (Chen et al, Ref. 41). Transfections were performed using lipofectAMINE PLUS reagent as described by the manufacturer (Invitrogen, Carlsbad, Calif.).
1. HeLa CD4 cells were plated in 96 well plates at a cell density of 1×10^4 cells per well in 100 μl Dulbecco's Modified Eagle Medium containing 10% fetal Bovine serum and incubated overnight.
2. Compound was added in a 2 μl dimethylsulfoxide solution, so that the final assay concentration would be ≦10 μM.
3. 100 μl of single-round infectious reporter virus in Dulbecco's Modified Eagle Medium was then added to the plated cells and compound at an approximate multiplicity of infection (MOI) of 0.01, resulting in a final volume of 200 μl per well.
4. Virally-infected cells were incubated at 37 degrees Celsius, in a CO2 incubator, and harvested 72 h after infection.
5. Viral infection was monitored by measuring luciferase expression from viral DNA in the infected cells using a luciferase reporter gene assay kit, as described by the manufacturer (Roche Molecular Biochemicals, Indianapolis, Ind.). Infected cell supernatants were removed and 50 μl of lysis buffer was added per well. After 15 minutes, 50 μl of freshly-reconstituted luciferase assay reagent was added per well. Luciferase activity was then quantified by measuring luminescence using a Wallac microbeta scintillation counter.
7. An EC50 provides a method for comparing the antiviral potency of the compounds of this invention. The effective concentration for fifty percent inhibition (EC50) was calculated with the Microsoft Excel Xlfit curve fitting software. For each compound, curves were generated from percent inhibition calculated at 10 different concentrations by using a four paramenter logistic model (model 205). Table 1 is the key for the data in Table 2.

| SMILES | EC50 [nM] |
| --- | --- |
| CNC(=O)c1ccc(F)c2c(C(=O)C(=O)N3CCN(C(=O)N(C)c4ccccc4)CC3)c[nH]c12 [Example 4] | 1000 to 5000 |
| CNC(=O)c1ccc(F)c2c(C(=O)C(=O)N3CCN(C(=O)N4CCCC4)CC3)c[nH]c12 [Example 15] | 1000 to 5000 |
| CNC(=O)c1ccc(F)c2c(C(=O)C(=O)N3CCN(C(=O)NC(C)(C)C)CC3)c[nH]c12 [Example 7] | > 5000 |
| CNC(=O)c1ccc(F)c2c(C(=O)C(=O)N3CCN(C(=O)N(C(C)C)C(C)C)CC3)c[nH]c12 [Example 6] | > 5000 |
| CCCCNC(=S)N1CCN(C(=O)C(=O)c2c[nH]c3c(C(=O)NC)ccc(F)c23)CC1 [Example 8] | > 5000 |
| CN(C)C(=O)N1CCN(C(=O)C(=O)c2c[nH]c3c(-n4cncn4)ncc(F)c23)CC1 [Example 9] | < 1000 |
| CNC(=O)c1ccc(F)c2c(C(=O)C(=O)N3CCN(C(=O)N(C)C)CC3)c[nH]c12 [Example 2] | < 1000 |
| CCN(CC)C(=O)N1CCN(C(=O)C(=O)c2c[nH]c3c(C(=O)NC)ccc(F)c23)CC1 [Example 5] | 1000 to 5000 |
| COC(=O)c1ccc(F)c2c(C(=O)C(=O)N3CCN(C(=O)N(C)C)CC3)c[nH]c12 [Example 1] | 1000 to 5000 |
| CNC(=O)c1ccc(F)c2c(C(=O)C(=O)N3CCN(C(=S)N(C)C)CC3)c[nH]c12 [Example 3] | < 1000 |
